Results reported in patent US20240109893A1, “PREPARATION AND APPLICATION METHOD OF HETEROCYCLIC COMPOUNDS AS KRAS INHIBITOR” (SHANGHAI KECHOW PHARMA, INC., priority 2020, published 2024).

Experiments:
KRAS G12C-GDP = KRAS G12C-GDP (Homo sapiens (Human), UniProt P01116, G12C); assay: KRAS G12C-GDP exchange test (SOS/cRAF/GTP, HTRF); assay type: biochemical; details: 1 h premix with compound, 2 h reaction with SOS, cRAF, GTP
Method: 2. A mixture of SOS (Pharmaron, ZZY-20190823), cRAF (Pharmaron, ZZY-20190823), GTP (Sigma, A6885-100MG), MAb Anti 6HIS-d2/MAb Anti GST-Eu (Cisbio, 61HISDLB/61GSTKLB) was added for a catalyzed reaction for 2 h.
3. The fluorescence signals of the emitted light at 615 nm and 665 nm under 320 nm excitation light were read by Biotek Microplate Reader (Synergy4).
4. The IC50 (median inhibitory concentration) of the compound was obtained by the following non-linear fitting formula: Y=Bottom+(Top−Bottom)/(1+10^((Log IC50−X)*Hill Slope)), and the data were analyzed by Graphpad 6-0 software.

H358 cells = assay: Cell activity experiment: activity test of H358 cells (MTT, 5 days); assay type: cell-based; details: 5 days incubation, absorbance 492 nm
In short: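 Viability was read by MTT: 4 h dye incubation, DMSO solubilisation, absorbance at 492 nm. This followed 5 days' treatment (37° C., 5% CO2) of H358 cells, pre-grown 24 h, with eight-point 3-fold dilutions up to 10000 nM final, 0.5% DMSO final, triplicate wells.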

[1] = Pharmacokinetic experiment in SD rats; assay type: in vivo; details: male, Sprague-Dawley, rat, plasma, po, 10 mg/kg; read-out: Oral bioavailability, F %
Method: Pharmacokinetic Experiment in SD Rats:
1. SPF male rats were randomly divided into groups. The compounds to be tested were separately administered by intravenous injection and oral gavage, with 3 animals for each compound to be tested in each mode of administration. The administration solvent was 5% DMSO+10% Solutol+85% normal saline or 85% PBS, and the substances to be tested were dissolved in the solvent to obtain clear solutions. Administration concentration and volume: 1) a single intravenous injection of 0.6 mg/mL of the compound to be tested, with an administration volume of 5 mL/kg and an administration dosage of 3 mg/kg; and 2) a single oral gavage of 1 mg/mL of the compound to be tested, with an administration volume of 10 mL/kg and an administration dosage of 10 mg/kg. The rats were fasted overnight (10-14 h) before administration and fed 4 h after administration.
2. Blood was collected via the jugular vein or by other appropriate methods at 200 μL per time point and anticoagulated with K2-EDTA, and after collection, the blood was placed on ice and centrifuged for plasma within 1 h (centrifugation conditions: 6800 g, 6 min 2-8° C.). The points for blood sampling from the animals in the intravenous injection group were respectively: before administration, and 5 min, 15 min, 30 min, 1 h, 2 h, 4 h, 8 h, and 24 h after administration; and the points for blood sampling from the animals in the oral administration group were respectively: before administration, and 15 min, 30 min, 1 h, 2 h, 4 h, 6 h, 8 h, and 24 h after administration.
3. The blood concentration was detected, and the pharmacokinetic parameter AUC(0-t) was calculated by Phoenix WinNonlin based on the blood concentration data at various time points. When the pharmacokinetic parameters were calculated, the BLQ before Cmax (including ‘No peak’) was calculated as 0: and BLQ after Cmax (including ‘No peak’) was not involved in the calculation.

Chain of KRAS G12C-GDP (P01116-2 other isoform, or with tags, fused parts or gaps G12C): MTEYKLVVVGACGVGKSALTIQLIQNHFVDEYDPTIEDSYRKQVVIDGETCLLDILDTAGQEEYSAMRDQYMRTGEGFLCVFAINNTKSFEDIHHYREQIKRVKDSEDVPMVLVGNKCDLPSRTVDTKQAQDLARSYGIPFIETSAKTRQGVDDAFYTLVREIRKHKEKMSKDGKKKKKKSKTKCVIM

In the case of C=C(F)C(=O)N1CCN(c2nc(OC[C@@]34CCCN3C[C@H](F)C4)nc3c(F)c(-c4cccc5c4CC4CC54)ccc23)C[C@@H]1CC#N (single isomer, unassigned) [Example 887], the IC50 (KRAS G12C-GDP) is reported as 1.02 nM, the IC50 (H358 cells) is reported as 2.65 nM and the bioavailability [1] is reported as 25.9%.
